Results taken from patent US20120238554A1, “SALTS OF POTASSIUM ATP CHANNEL OPENERS AND USES THEREOF” (priority 2007, published 2012).
Where two headings read alike, the source gives them in different places. Marks after values point to notes of the source that are not given here.

What was measured:
obese Zucker rats = conditions: 5 mg/kg/day, cited from earlier work
[1] = Excipient compatibility study for diazoxide choline salt; type: physicochemical
[2] = Form conversion and degradation under thermal stress (60° C.); conditions: for Thermal: 7 days
Experimental: Studies were also conducted to evaluate the likelihood for conversion and degradation under thermal stress.

[3] = Polymorph screening crystallizations and characterization of forms (XRPD, DSC, TGA); type: physicochemical; conditions: for TGA: data indicates a half-molar equivalent of acetone, water, or dioxane for Forms C, D, F
Experimental: DSC analysis were conducted with a Mettler 822 DSC, by measuring the amount of energy released by a sample, as the sample was heated from 30° C. to between 300-500° C. at a rate of 10° C./min. Typical applications of DSC analysis include determination of melting point temperature and the heat of melting; measurement of the glass transition temperature; curing and crystallization studies; and identification of phase transformations.
TGA measurements were conducted with a Mettler 851 SDTA/TGA, by measuring weight loss as a function of increasing temperature, as the samples were heated from 30° C. to 230° C. at a rate of 10° C./min. The TCA can be used to analyze desorption and decomposition behavior, characterize oxidation behavior, set burnout or conditioning parameters (temperature/ramp rate/time), and determine chemical composition.
XRPD samples were analyzed with a Shimadzu XRD-6000 system, using a Cu Kα, 40 kV, 40 mA X-ray tube. The divergence and scatter slits were 1.00 deg, and the receiving slit was 0.30 mm. Samples were continuously scanned at a range of 3.0-45.0 deg, with a step size of 0.04 deg., at a scan rate of 2 deg/min.
After hot filtration the vials were placed in a refrigerator (4° C.) for 16 hours. […] All solids were dried in vacuo at ambient temperature and 30 in. Hg.
After hot filtration the vials were then slowly cooled to room temperature at the rate of 20° C./h and stirred at room temperature for 1-2 hours. All solids were dried in vacuo at ambient temperature and 30 in. Hg.
Solvents for crystallizations were chosen based on the solubility screen summarized below.

[4] = Moisture sorption analysis; type: physicochemical
Experimental: Moisture Sorption Analysis was performed with a Hiden IGAsorp Moisture Sorption Instrument, Samples were first dried at 0% relative humidity at 25° C. until an equilibrium weight was reached, or for a maximum of 4 hours. Samples were then subjected to an isothermal (25° C.) scan from 10-90% relative humidity in steps of 10%. The samples were allowed to equilibrate to an asymptotic weight at each point for a maximum of 4 hours. Following absorption, a desorption scan from […] relative humidity (at 25° C.) was run in steps of −10%, again allowing a maximum of 4 hours for the samples to equilibrate. The resulting samples after desorption were dried at 80° C. for two hours and analyzed by XRPD.

high-fructose diet rats = conditions: rat, in vivo; cited from earlier work
Zucker rats = conditions: oral 1-10 mg/kg/day, 14 days; cited from earlier work
[5] = tested on: hypertriglyceridemic patients
Experimental: A clinical study was conducted in 12 hypertriglyceridemic patients. […] After day 8 they were crossed over from one formulation to the other formulation. […] The endpoint of the study was percentage change from baseline to day 15 of triglycerides, total cholesterol, LDL cholesterol, HDL cholesterol and non-HDL cholesterol. Lipid parameters were measured at baseline and on days 7 and 15. Blood pressure was collected at multiple time points.

[6] = mouse, in vivo; for AUC0-6: 50 mg/kg
Experimental: The study used 4 mice dosed per treatment arm. Following, a single intravenous or oral dose, administered by gavage, pharmacokinetic samples were collected at 4 time points: 0.5, 1, 3, and 6 hours post-dosing. Two mice were sampled at each timepoint, with each mouse contributing samples to two timepoints. Each test drug was administered as a 50 mg/kg dose, which yields nearly equal molar concentrations. […] Blood samples were collected into tubes containing dipotassium EDTA as the anticoagulant and placed on ice packs until centrifugation (at 3000 rpm for 10 minutes at 4° C.). After centrifugation, samples were stored at −70° C. until they were thawed for analysis. Circulating drug levels were measured using a precise and reproducible LC-MS/MS assay.

healthy volunteers [7] = tested on: healthy volunteers
Experimental: (§1) A randomized double-blind, placebo-controlled clinical trial was conducted in 24 healthy volunteers. They were randomized in a 2:1 ratio of treated to placebo. […] The dose was administered once per day in the morning for a period of 7 days. A number of lipid parameters were measured at baseline and again on day 7 including fasting triglycerides, total cholesterol, LDL cholesterol, HDL cholesterol, and non-HDL cholesterol. Additionally, blood pressure was measured on a daily basis.

[8] = tested on: hypertriglyceridemic patients; assay: Crossover of formulations U and K′ (435 mg/day diazoxide choline): lipid responses; type: in vivo, human; conditions: 15 days, 435 mg/day diazoxide choline once daily
Experimental: A clinical study was conducted in 12 hypertriglyceridemic patients. […] Treatment continued for 16 days. The endpoint of the study was percentage change from baseline to day 15 of triglycerides, total cholesterol, LDL cholesterol, HDL cholesterol and non-HDL cholesterol. Lipid parameters were measured at baseline and on days 7 and 15. Blood pressure was collected at multiple time points.

healthy volunteers [9] = tested on: healthy volunteers; remark: listed apart in the source
Experimental: as §1
In PK008, the dose was administered as one and one ½ tablet formulation K′.

[10] = Slurry studies of inter-conversion of the solid form; conditions: n-heptane, dichloromethane; for inter-conversion of the solid form in slurry: room temperature, 7 and 14 days, toluene (Table 16 Form B: CH2Cl2, THF, t-AmOH)
[11] = pH 2
Experimental: Solubility concentrations were determined using area-percent calculations with HPLC calibration curves.

[12] = 300 mg diazoxide/day, formulation U
[13] = baseline to day 7, 300 mg diazoxide/day as formulation U
[14] = Study EC004, 435 mg diazoxide choline, 7 days
[15] = Study TR002, 508 mg diazoxide choline, 49 days
[16] = 60° C., closed, protected from light, 7 and 14 days
[17] = 25° C., listed as Potassium diazoxide salt

For `Cl.N#CN=C(Nc1ccc(N)nc1)N[C@@H]1C[C@@H]2CC[C@H]1C2` [AL0671, (+)—N-(6-amino-3-pyridil)-N′-[(1S,2R,4R)-bicyclo-[2.2.1]hept-2-yl]-N″-cyanoguanidine hydrochloride], the “serum total triglyceride, chylomicron and very-low-density lipoprotein levels” value (obese Zucker rats; 1 or 2 weeks) is listed as “significantly decrease”, the “increase of hepatic triglyceride lipase activities” value (obese Zucker rats; postheparin plasma) is listed as 3 fold and the “increase of lipoprotein lipase activities” value (obese Zucker rats; postheparin plasma) is listed as 4 fold.
With `CC1=Nc2ccc(Cl)cc2S(=O)(=O)N1` [Diazoxide Control] the “diazoxide choline salt assayed in mixture with excipient” value ([1]; 1 Month 40° C./75% RH) was 99.0 % (w/w) and the “diazoxide choline salt assayed in mixture with excipient” value ([1]; 1 Month 50° C.) was 99.4 % (w/w).
With `CC1=NS(=O)(=O)c2cc(Cl)ccc2[N-]1.[K+]` [Diazoxide potassium Form C] the Thermal [2] was “Stable (7 days)”, the XRPD [3] was “Crystalline” and the TGA [3] was 8.4%**. The “Moisture Sorption” value [4] was “Hygroscopic -” and the “Moisture Sorption: deliquesced at” value [4] was “deliquesced at 90% RH”.
For `CC1=NS(=O)(=O)c2cc(Cl)ccc2[N-]1.[K+]` [Diazoxide potassium Form D], the Thermal [2] was “Stable (7 days)”, the XRPD [3] was “Crystalline” and the TGA [3] was 4.5%**. The “Moisture Sorption” value [4] was “Hygroscopic -” and the “Moisture Sorption: deliquesced at” value [4] was “deliquesced at 90% RH”.
In the case of `CC1=NS(=O)(=O)c2cc(Cl)ccc2[N-]1.[K+]` [Diazoxide potassium Form F], the Thermal [2] is reported as “Stable (7 days)”, the XRPD [3] is reported as “Crystalline” and the TGA [3] is reported as 13.1%**.
For `N#CNC(=NCCc1ccccc1Cl)c1cncc(N)c1` [KRN4884], the “Hepatic triglyceride lipase activity” value (high-fructose diet rats) is given as “not affected”, the “lipoprotein lipase (LPL) activity in muscle” value (high-fructose diet rats) is given as “significantly increased” and the “serum insulin and glucose levels” value (Zucker rats) is given as “no change”. For the same compound, the serum triglyceride levels (Zucker rats) was “dose dependently reduce”.
For `CC1=Nc2ccc(Cl)cc2S(=O)(=O)[N-]1.C[N+](C)(C)CCO` [diazoxide choline], the “average drop in standing blood pressure” value ([5]; 7 days of treatment) was roughly 8 mmHg, the “standing diastolic blood pressure” value ([5]; after 7 days of treatment, baseline 80) was 75.5 mmHg and the “standing systolic blood pressure” value ([5]; after 7 days of treatment, baseline 123) was 112 mmHg. For the same compound, the “supine diastolic blood pressure” value ([5]; after seven days of treatment, baseline 69) was 62.5 mmHg, the “supine systolic blood pressure” value ([5]; after seven days of treatment, baseline 121) was 116 mmHg and the “average drop in supine blood pressure” value ([5]; seven days of treatment) was roughly 6 mmHg. The Absolute oral bioavailability [6] was 100%, the AUC0-6 ([6]; iv) was 137.176 µg·h/mL and the AUC0-6 ([6]; po) was 141.26 µg·h/mL. The “HDL cholesterol, Percent change from base-line” value (healthy volunteers [7]; 300 mg diazoxide/day, 7 days) was 8.2%, the “LDL cholesterol, Percent change from base-line” value (healthy volunteers [7]; 300 mg diazoxide/day, 7 days) was −5.4% and the “Total cholesterol, Percent change from base-line” value (healthy volunteers [7]; 300 mg diazoxide/day, 7 days) was −2.3%. The “Triglycerides, Percent change from base-line” value (healthy volunteers [7]; 300 mg diazoxide/day, 7 days) was −13.2%, the “non-HDL cholesterol, Percent change from base-line” value (healthy volunteers [7]; 300 mg diazoxide/day, 7 days) was −6.3% and the “HDL cholesterol, Baseline mean ± SEM” value (healthy volunteers [7]; [12]) was 49 ± 3.3 mg/dL. For the same compound, the “HDL cholesterol, Day 7 mean ± SEM” value (healthy volunteers [7]; [12]) was 53 ± 2.9 mg/dL, the “LDL cholesterol, Baseline mean ± SEM” value (healthy volunteers [7]; [12]) was 111 ± 5.8 mg/dL and the “LDL cholesterol, Day 7 mean ± SEM” value (healthy volunteers [7]; [12]) was 105 ± 4.9 mg/dL. The “Total cholesterol, Baseline mean ± SEM” value (healthy volunteers [7]; [12]) was 175 ± 7.5 mg/dL, the “Total cholesterol, Day 7 mean ± SEM” value (healthy volunteers [7]; [12]) was 171 ± 6.4 mg/dL and the “Triglycerides, Baseline mean ± SEM” value (healthy volunteers [7]; [12]) was 76 ± 7.8 mg/dL. For the same compound, the “Triglycerides, Day 7 mean ± SEM” value (healthy volunteers [7]; [12]) was 66 ± 3.9 mg/dL, the “non-HDL cholesterol, Baseline mean ± SEM” value (healthy volunteers [7]; [12]) was 126 ± 6.6 mg/dL and the “non-HDL cholesterol, Day 7 mean ± SEM” value (healthy volunteers [7]; [12]) was 118 ± 5.5 mg/dL. The “increase HDL cholesterol” value (healthy volunteers [7]; [13]) was 8.2%, the “reduction in total cholesterol, LDL cholesterol and non-HDL cholesterol versus placebo arm” value (healthy volunteers [7]; [13]) was “reduction in the diazoxide choline treated arm was greater” and the reduction of triglycerides (healthy volunteers [7]; [13]) was 13.2%. The “degradation under thermal stress (HPLC gradient area percent)” value [2] was “did not show any significant degradation”, the “form conversion and degradation under thermal stress (XRPD, DSC)” value (“form conversion and degradation” below) [2] was “consistent with the starting material, as well as the presence of additional unique peaks” and the HDL cholesterol [8] was “marked increase”. For the same compound, the “triglycerides, total cholesterol, LDL cholesterol and nonHDL cholesterol” value [8] was “marked reductions”, the “reduction in diastolic blood pressure” value (healthy volunteers [9]; 7 days, 300 mg diazoxide/day as formulation U, healthy volunteers) was 6.2 mmHg and the “Diastolic blood pressure, Baseline” value (healthy volunteers [9]; [14]) was 69.4 mmHg. For the same compound, the “Diastolic blood pressure, End of treatment” value (healthy volunteers [9]; [14]) was 63.2 mmHg, the “Systolic blood pressure, Baseline” value (healthy volunteers [9]; [14]) was 113.2 mmHg and the “Systolic blood pressure, End of treatment” value (healthy volunteers [9]; [14]) was 113.5 mmHg. The “Diastolic blood pressure, Baseline” value (healthy volunteers [9]; [15]) was 77.7 mmHg, the “Diastolic blood pressure, End of treatment” value (healthy volunteers [9]; [15]) was 67.0 mmHg and the “Systolic blood pressure, Baseline” value (healthy volunteers [9]; [15]) was 118.1 mmHg. For the same compound, the “Systolic blood pressure, End of treatment” value (healthy volunteers [9]; [15]) was 117.0 mmHg, the “inter-conversion of the solid form in slurry” value (“inter-conversion” for short) ([10]; listed as Choline Diazoxide Salt) was “no propensity of inter-conversion” and the “hydrate formation (hysteresis upon desorption)” value (“hydrate formation” for short) ([4]; 25° C.) was “does not form a stable hydrate”. For the same compound, the “Moisture Sorption (hygroscopicity)” value ([4]; 25° C., listed as Choline diazoxide salt) was “deliquescent -”, the “Moisture Sorption (hygroscopicity)” value ([4]; 25° C., listed as choline salt of diazoxide) was “hygroscopic” and the moisture absorbed ([4]; 80% relative humidity, 25° C.) was “over 28%”. The “crystalline form after moisture sorption/desorption (XRPD)” value ([4]; listed as choline salt of diazoxide) was “changed to an alternate crystalline form” and the “solid form after the solubility analysis (XRPD)” value [11] was “changed back to the free form diazoxide”.
In the case of `CC1=NS(=O)(=O)c2cc(Cl)ccc2[N-]1.[K+]` [potassium salt of diazoxide], the “degradation under thermal stress (HPLC gradient area percent)” value ([2]; 60° C., 14 days) is reported as “did not show any significant degradation”, the “form conversion and degradation” value [2, 16] is reported as “showed unique peaks” and the Form ([3]; Table 26, slow cooling, Water) is reported as “Free form”. The Form ([3]; Table 30, single solvent, fast-cooling, MeCN) was “C + D”, the “degradation after slurry study (HPLC gradient area percent)” value ([10]; toluene, 14 days) was “did not show any significant degradation” and the “inter-conversion” value [10] was “no propensity of inter-conversion”. For the same compound, the “crystalline form after moisture sorption/desorption (XRPD)” value [4] was “changed to an alternate crystalline form”, the “Moisture Sorption (hygroscopicity)” value ([4]; 25° C.) was “hygroscopic” and the “hydrate formation” value ([4]; 25° C.) was “hemihydrate from 0-30% RH and a monohydrate from 35-75% RH”. For the same compound, the “Moisture Sorption (hygroscopicity)” value [4, 17] was “deliquescent -”, the “hydrate formation” value [4, 17] was “hemi/monohydrate” and the water absorbed ([4]; 60% RH, 25° C.) was 5.4 wt %. For the same compound, the water absorbed ([4]; 90% RH, 25° C.) was 38.3 wt % and the “solid form after the solubility analysis (XRPD)” value [11] was “changed back to the free form diazoxide”.
For `CC1=NS(=O)(=O)c2cc(Cl)ccc2[N-]1.[Na+]` [sodium salt of diazoxide], the “form conversion and degradation” value [2, 16] was “little propensity to change form or degrade”, the “inter-conversion” value [10] was “no propensity of inter-conversion” and the “Moisture Sorption (hygroscopicity)” value ([4]; 25° C.) was “hygroscopic”. For the same compound, the “hydrate formation” value ([4]; 25° C.) was “possible hydrate formation”, the “Moisture Sorption (hygroscopicity)” value ([4]; 25° C., listed as Sodium diazoxide salt) was “deliquescent -” and the water absorbed ([4]; 60% RH, 25° C.) was 1.2 wt %. For the same compound, the water absorbed ([4]; 80% RH, 25° C.) was 6.6 wt %.
